# In PubChem BioAssay AID2060883 (Molecular Pharmacology Branch, DTP, NCI, 2025):
# System: 843782-103-R-J1-PDC complex spheroid viability
# Test: Anticancer human tumor 843782-103-R-J1-PDC patient-derived lung adenocarcinoma cell line growth inhibition [RAS]
# Details: for viability, T/C: stronger effect = lower value; for IC50: curve of first compound
# Description: RAS pathway inhibitors in Combinations in Complex Spheroids
# A high-throughput screen of multi-cell type tumor spheroids was designed to identify active combinations of RAS pathway inhibitors and targeted small molecules. Complex spheroids include a stromal component modeled by human endothelial cells (HUVEC) and fibroblasts modeled by human mesenchymal stem cells (MSCs). The concentration ranges selected for each drug and investigational agent were based upon clinically achievable concentrations if the clinical Cmax of the agent was known.
# Compounds. The drugs and investigational agents: abemaciclib (NSC768073), cobimetinib (NSC768068), divarasib (GDC6063, NSC841802), docetaxel (NSC628503), GDC-1971 (RLY-1971, NSC841576), gemcitabine (NSC613327), inavolisib (NSC800729), ipatasertib (NSC767898), KB-0742 (NSC834161), MRTX-1133 (NSC836407), osimertinib (NSC779217), RMC-4630 (NSC839698), RMC-6236 (NSC851965), RMC-6291 (NSC852671), Ro-3306 (NSC812927), sapanisertib (NSC764658), SN-38 (NSC673596), staurosporine (NSC755774), SY5609 (NSC837396), and tovorafenib (DAY101, NSC766906), were obtained from the National Cancer Institute (NCI) Developmental Therapeutics Program Chemical Repository. The FDA-approved anticancer drug set is available from the NCI Developmental Therapeutics Program. […] The stock solutions were prepared in dimethyl sulfoxide (DMSO, Sigma-Aldrich, St. Louis, MO, cat. D2650) at 800-fold the tested concentration and stored at -70 degrees C prior to their use. All drugs and investigational agents were tested over a range starting from a high concentration at or near the clinical Cmax and decreasing in half-log increments. If the clinical Cmax for an agent had not been determined, the highest concentration tested was 10 microM.
# Cell Culture. All cells were maintained in an incubator at 37 degrees C and 5% CO2 with 95% humidity. The PDC lines were cultured according to standard operating procedures established by the NCI PDMR. All PDCs were thawed and cultured in Matrigel-coated flasks prepared with a working solution of 1X Ham's F-12 nutrient mix, without supplementation (Invitrogen, Waltham, MA, cat. 11765054), 100 U/mL penicillin-streptomycin (Invitrogen, cat. 15140122), and 2.5% Matrigel (Corning Inc., Corning, NY, cat. 354248) for the first three passages. The 362531-283-R-J2-PDC and 782815-120-R-J1-PDC lines were cultured in 6C/Colon 1B media, which includes advanced DMEM/F-12 (Thermo Fisher Scientific, cat. 12634028), 10 mM HEPES (Thermo Fisher Scientific, cat. 15630080), 1X GlutaMAX supplement (Thermo Fisher Scientific, cat. 35050061), 0.1 mg/mL primocin (InvivoGen, San Diego, CA, cat. ant-pm-2), 10% defined fetal bovine serum, heat inactivated (HyClone Laboratories Inc., Logan, UT, cat. SH30070.03HI), 50% L-WRN conditioned media (ATCC, cat. CRL-3276), 1.25 mM N-Acetyl-L-cysteine (Sigma-Aldrich, cat. A9165), 10 mM nicotinamide (Sigma-Aldrich, cat. N0636), 1X B-27 supplement (Thermo Fisher Scientific, cat. 17504044), 1X N-2 supplement (Thermo Fisher Scientific, cat. 17502048), 50 ng/mL human EGF (Thermo Fisher Scientific, cat. PHG0311), and 10 microM Y-27632 dihydrochloride (Tocris Bioscience, cat. 1254). The K12877-001-R-J1-PDC line was cultured in 6I media, which includes all 6C/Colon 1B media plus 10 ng/mL human FGF-10 (PeproTech, cat. 100-26), 1 ng/mL human FGF-2 (PeproTech, cat. 100-18B), 1 µM prostaglandin E2 (Tocris Bioscience, cat. 2296), […] hydrocortisone (Sigma-Aldrich, cat. H4001), and […] bovine insulin (Sigma-Aldrich, cat. I6634). The K86415-001-R-J1-PDC line was cultured in 6D media, which includes all 6C/Colon 1B media components minus the L-WRN conditioned media. The 485176-168-R4-J1-PDC was cultured in PANC media, which includes all 6C/Colon 1B media plus 100 ng/mL human FGF-10 (PeproTech, cat. 100-26), 500 nM SB-431542 (Selleckchem, cat. S1067), and 10 nM gastrin (Tocris Bioscience, cat. 3006). […]
# 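Also: viability read after seven days of compound exposure.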
compound,measurement,setting,value
CC(Nc1ccc2c(c1)OCCn1cc(N3C(=O)OCC3C(F)F)nc1-2)C(N)=O (centres undefined),"viability, T/C",compound 0.0316 µM,95.9% [middle of 4 runs]
same,"viability, T/C",compound 0.316 µM,50.3% [middle of 4 runs]
same,"viability, T/C",compound 1 µM,38.3% [middle of 4 runs]
same,"viability, T/C",compound 3.16 µM,26.1% [middle of 4 runs]
same,"viability, T/C",compound 10 µM,16.3% [middle of 4 runs]
NC1c2ccccc2OC12CCN(c1cnc3c(N4CCCc5ncccc54)n[nH]c3n1)CC2 (centres undefined) + C#Cc1c(F)ccc2cc(O)cc(-c3ncc4c(N5CC6CCC(C5)N6)nc(OCC56CCCN5CC(F)C6)nc4c3F)c12,IC50,second compound 0.0316 µM,1160 nM
same,IC50,second compound 0.1 µM,642 nM
same,IC50,second compound 0.316 µM,231 nM
same,IC50,second compound 1 µM,72.1 nM
same,IC50,second compound 3.16 µM,< 31.6 nM
same,IC50,second compound 10 µM,< 31.6 nM
same,"viability, T/C","second compound 0.0316 µM, first compound 0.0316 µM",92.1%
same,"viability, T/C","second compound 0.0316 µM, first compound 0.1 µM",81.1%
same,"viability, T/C","second compound 0.0316 µM, first compound 0.316 µM",60.6%
same,"viability, T/C","second compound 0.0316 µM, first compound 1 µM",53%
same,"viability, T/C","second compound 0.0316 µM, first compound 3.16 µM",40.9%
same,"viability, T/C","second compound 0.0316 µM, first compound 10 µM",25.8%
same,"viability, T/C","second compound 0.1 µM, first compound 0.0316 µM",87.8%
same,"viability, T/C","second compound 0.1 µM, first compound 0.1 µM",69.8%
same,"viability, T/C","second compound 0.1 µM, first compound 0.316 µM",54.9%
same,"viability, T/C","second compound 0.1 µM, first compound 1 µM",46.2%
same,"viability, T/C","second compound 0.1 µM, first compound 3.16 µM",37.9%
same,"viability, T/C","second compound 0.1 µM, first compound 10 µM",22.5%
same,"viability, T/C","second compound 0.316 µM, first compound 0.0316 µM",82%
same,"viability, T/C","second compound 0.316 µM, first compound 0.1 µM",61.8%
same,"viability, T/C","second compound 0.316 µM, first compound 0.316 µM",42.8%
same,"viability, T/C","second compound 0.316 µM, first compound 1 µM",37.2%
same,"viability, T/C","second compound 0.316 µM, first compound 3.16 µM",29.4%
same,"viability, T/C","second compound 0.316 µM, first compound 10 µM",21.2%
same,"viability, T/C","second compound 1 µM, first compound 0.0316 µM",69%
same,"viability, T/C","second compound 1 µM, first compound 0.1 µM",38.5%
same,"viability, T/C","second compound 1 µM, first compound 0.316 µM",32.9%
same,"viability, T/C","second compound 1 µM, first compound 1 µM",26.8%
same,"viability, T/C","second compound 1 µM, first compound 3.16 µM",21.3%
same,"viability, T/C","second compound 1 µM, first compound 10 µM",14.9%
same,"viability, T/C","second compound 3.16 µM, first compound 0.0316 µM",43.3%
same,"viability, T/C","second compound 3.16 µM, first compound 0.1 µM",25.7%
same,"viability, T/C","second compound 3.16 µM, first compound 0.316 µM",22.9%
same,"viability, T/C","second compound 3.16 µM, first compound 1 µM",18.8%
same,"viability, T/C","second compound 3.16 µM, first compound 3.16 µM",21.1%
same,"viability, T/C","second compound 3.16 µM, first compound 10 µM",15.9%
same,"viability, T/C","second compound 10 µM, first compound 0.0316 µM",30.3%
same,"viability, T/C","second compound 10 µM, first compound 0.1 µM",16.4%
same,"viability, T/C","second compound 10 µM, first compound 0.316 µM",24%
same,"viability, T/C","second compound 10 µM, first compound 1 µM",19.1%
same,"viability, T/C","second compound 10 µM, first compound 3.16 µM",17.5%
same,"viability, T/C","second compound 10 µM, first compound 10 µM",9.27%
CC(Nc1ccc2c(c1)OCCn1cc(N3C(=O)OCC3C(F)F)nc1-2)C(N)=O (centres undefined) + CCn1c(-c2cc(N3CCN(C)CC3)cnc2C(C)OC)c2c3cc(ccc31)-c1csc(n1)CC(NC(=O)C1CC1C)C(=O)N1CCCC(N1)C(=O)OCC(C)(C)C2,IC50,second compound 0.000949 µM,77 nM
same,IC50,second compound 0.003 µM,< 31.6 nM
same,IC50,second compound 0.00949 µM,< 31.6 nM
same,IC50,second compound 0.03 µM,< 31.6 nM
same,IC50,second compound 0.0949 µM,< 31.6 nM
same,IC50,second compound 0.3 µM,< 31.6 nM
same,"viability, T/C","second compound 0.000949 µM, first compound 0.0316 µM",58%
same,"viability, T/C","second compound 0.000949 µM, first compound 0.1 µM",48.6%
same,"viability, T/C","second compound 0.000949 µM, first compound 0.316 µM",29.5%
same,"viability, T/C","second compound 0.000949 µM, first compound 1 µM",17.9%
same,"viability, T/C","second compound 0.000949 µM, first compound 3.16 µM",15.6%
same,"viability, T/C","second compound 0.000949 µM, first compound 10 µM",8.54%
same,"viability, T/C","second compound 0.003 µM, first compound 0.0316 µM",46.8%
same,"viability, T/C","second compound 0.003 µM, first compound 0.1 µM",31.7%
same,"viability, T/C","second compound 0.003 µM, first compound 0.316 µM",23.1%
same,"viability, T/C","second compound 0.003 µM, first compound 1 µM",14.1%
same,"viability, T/C","second compound 0.003 µM, first compound 3.16 µM",10.7%
same,"viability, T/C","second compound 0.003 µM, first compound 10 µM",5.42%
same,"viability, T/C","second compound 0.00949 µM, first compound 0.0316 µM",28%
same,"viability, T/C","second compound 0.00949 µM, first compound 0.1 µM",17.1%
same,"viability, T/C","second compound 0.00949 µM, first compound 0.316 µM",17%
same,"viability, T/C","second compound 0.00949 µM, first compound 1 µM",10.7%
same,"viability, T/C","second compound 0.00949 µM, first compound 3.16 µM",9.87%
same,"viability, T/C","second compound 0.00949 µM, first compound 10 µM",3.83%
same,"viability, T/C","second compound 0.03 µM, first compound 0.0316 µM",17.1%
same,"viability, T/C","second compound 0.03 µM, first compound 0.1 µM",13.6%
same,"viability, T/C","second compound 0.03 µM, first compound 0.316 µM",10.8%
same,"viability, T/C","second compound 0.03 µM, first compound 1 µM",8.39%
same,"viability, T/C","second compound 0.03 µM, first compound 3.16 µM",6.08%
same,"viability, T/C","second compound 0.03 µM, first compound 10 µM",2.39%
same,"viability, T/C","second compound 0.0949 µM, first compound 0.0316 µM",15.7%
same,"viability, T/C","second compound 0.0949 µM, first compound 0.1 µM",10.8%
same,"viability, T/C","second compound 0.0949 µM, first compound 0.316 µM",9.99%
same,"viability, T/C","second compound 0.0949 µM, first compound 1 µM",6.85%
same,"viability, T/C","second compound 0.0949 µM, first compound 3.16 µM",4.41%
same,"viability, T/C","second compound 0.0949 µM, first compound 10 µM",3.16%
same,"viability, T/C","second compound 0.3 µM, first compound 0.0316 µM",16.4%
same,"viability, T/C","second compound 0.3 µM, first compound 0.1 µM",10.4%
same,"viability, T/C","second compound 0.3 µM, first compound 0.316 µM",7.76%
same,"viability, T/C","second compound 0.3 µM, first compound 1 µM",7.43%
same,"viability, T/C","second compound 0.3 µM, first compound 3.16 µM",5.53%
same,"viability, T/C","second compound 0.3 µM, first compound 10 µM",2.56%
